IC50 data for 23 compounds are collected here from patent US20260248763A1 (BIO GENUINE (SHANGHAI) BIOTECH CO., LTD, priority 2023, published 2026).

For orientation: pIC50 means the IC50 on a negative log10 scale, so that one unit is a factor of ten. The low end stands for a large IC50, the high end for a small IC50.

SMILES strings stand for the structures. pIC50: −log10 of the molar value.

This test has as its target T1, OTR (Homo sapiens, UniProt P30559).
T1 construct: expressed in transfected cells; host or cells: OTR/HEK293 stably transfected cell line
T1 sequence (P30559 1-389): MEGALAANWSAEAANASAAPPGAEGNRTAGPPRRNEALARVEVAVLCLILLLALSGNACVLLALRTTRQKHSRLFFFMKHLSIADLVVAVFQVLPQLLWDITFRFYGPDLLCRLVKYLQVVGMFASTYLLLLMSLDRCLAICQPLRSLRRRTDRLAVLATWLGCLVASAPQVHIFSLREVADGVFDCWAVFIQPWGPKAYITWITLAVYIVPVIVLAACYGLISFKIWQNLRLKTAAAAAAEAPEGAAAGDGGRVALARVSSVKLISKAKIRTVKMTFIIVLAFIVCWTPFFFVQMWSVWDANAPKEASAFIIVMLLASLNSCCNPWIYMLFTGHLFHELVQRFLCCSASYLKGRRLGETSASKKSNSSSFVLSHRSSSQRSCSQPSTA
The experiment in a line: Ca2+ mobilization in cells stably expressing OTR (FLIPR, antagonist mode). The test is classed as cell-based. The note with it: OTR/HEK293 stably transfected cell line. From the text:
Test Example 1. Determination of the Effect of the Compound of the Present Disclosure on Ca^2+ Mobilization in Cells Stably Expressing OTR
To measure the antagonistic effect of the compound of the present disclosure on OTR activity expressed in the OTR/HEK293 stably transfected cell line.
• DMEM medium (Invitrogen, 11965) • F12 medium (Invitrogen, 11765) • Fetal bovine serum (Excell, FSP500) • Geneticin (Invitrogen, 10131) • Penicillin/Streptomycin (Invitrogen, SV30010) • Fluo-4 Direct kit (Invitrogen, F10471) • 384-well cell plate (Greiner, 781090) • 384-well compound plate (Greiner, 781280)
• FLIPR instrument (Molecular Device) • EHCO instrument (Labcyte) • Cell counter (Beckman, Vi-cell XR)
The cultured cells were washed twice with pre-heated DPBS and digested with appropriate amount of trypsin at 37° C. for 1 minute, and then appropriate amount of culture medium was added to terminate digestion. The cells were centrifuged at 1000 rpm for 5 minutes. The supernatant was gently discarded without disturbing the cell pellet at the bottom. The cells were resuspended in culture medium and 1 mL was taken out for cell counting and viability assessment using Vi-CELL™. The cells were diluted to 1×10^6 cells/mL (20,000 cells/20 μL) with culture medium, seeded into a 384-well cell plate and incubated at 37° C. with 5% CO2 for 16-20 h.
Formulation of 250 mM Probenecid solution: according to the kit instructions, 1 mL of FLIPR buffer salt solution was added to 77 mg of probenecid, prepared fresh just before use. Formulation of Fluo-4 Direct™ (2×, 8 μM) loading buffer: according to the kit instructions, the required amount of Fluo-4 Direct™ was taken out and thawed in advance, 10 mL of FLIPR buffer salt solution and 0.2 mL of 250 mM Probenecid solution were added to each tube, and the mixture was vortexed in the dark for >5 minutes, prepared fresh just before use.
Preparation of agonist reference compound plate: the agonist was diluted 3-fold in 10 points using ECHO, and 750 nL was transferred to the corresponding compound plate using ECHO.
Preparation of reference and test compound plates: the test compound was diluted 3-fold in 10 points with ECHO, and 900 nL was transferred to the corresponding compound plate; the reference compound was diluted 3-fold in 10 points with assay buffer salt solution, and 30 μL was transferred to the compound plate.
30 μL of assay buffer salt solution was added to the corresponding compound plate, and the mixture was centrifuged at 1000 rpm for 1 minute.
The cell plate prepared the day before was taken out of the incubator, and 20 μL of 2×Fluo-4 Direct™ buffer was added to each well, with a total volume of 40 μL.
The plate was incubated in an incubator at 37° C. with 5% CO2 for 50 minutes, and then placed at room temperature for 10 minutes.
The compound plate, cell plate, and pipette tips were placed into the instrument.
For the agonist reference compound plate: the FLIPR instrument software was run, 10 μL of the pre-determined concentration of agonist reference compound was added to the cell plate following the preset protocol, and the fluorescence signal was read. After reading, the data were exported to calculate the EC80 for each cell line, and the agonist at 6×EC80 concentration was prepared.
For the compound plate: the FLIPR instrument software was run, 10 μL of the pre-determined concentration of test compound and the reference compound were added to the cell plate following the preset protocol, and the fluorescence signal was read. 10 μL of the reference compound agonist at 6×EC80 concentration was added to the cell plate, and the fluorescence signal was read. For antagonist detection of the compound, the data were exported using the “Max-Min” and “Read 1 to Maximum allowed” methods in the software, and the data were fitted using Prism.
Background: A change in cytosolic calcium serves as a functional read-out for many receptors and channels.
The compound `CON=C1C[C@@H](c2nc3ccccc3o2)N(C(=O)c2ccc(-c3ccccc3C)cc2)C1` [Example A0086, (S, EZ)-(2-(Benzo[d]oxazol-2-yl)-4-(methoxyimino)pyrrolidin-1-yl)(2′-methyl-[1, 1′-biphenyl]-4-yl)methanone] showed a pIC50 of 6.62.
As for `CO/N=C1\C[C@@H](CO)N(C(=O)c2ccc(-c3cccc(C#N)c3C)c(OC)n2)C1` [Example A0222, 3-(6-[(2S, 4E)-2-(Hydroxymethyl)-4-(methoxyimino)pyrrolidine-1-carbonyl]-2-methoxypyridin-3-yl)-2-methylbenzonitrile], the figure is 6.95; as for `CO/N=C1\C[C@@H](CO)N(C(=O)c2ccc(-c3cccc(C#N)c3C)cc2OC)C1` [Example A0245], 7.24; as for `CON=C1C[C@@H](C2(O)CC2)N(C(=O)c2ccc(-c3ccccc3C)cc2)C1` [Example A0066, (S, EZ)-(2-(1-Hydroxycyclopropyl)-4-(methoxyimino)pyrrolidin-1-yl)(2′-methyl-[1,1′-biphenyl]-4-yl)methanone], 6.71.
As for `CNC(=O)[C@@H]1C/C(=N\OC)CN1C(=O)c1ccc(-c2cccc(C#N)c2C)cc1` [Example A0232, (S, E)-1-(3′-Cyano-2′-methyl-[1,1′-biphenyl]-4-carbonyl)-4-(methoxyimino)-N-methylpyrrolidine-2-carboxamide], the negative-log IC50 (pIC50) was 6.40.
As for `CO/N=C1/C[C@@H](CO)N(C(=O)c2cnc(-c3cccc(C#N)c3C)cn2)C1` [Example A0251, (S,Z)-3-(5-(2-(Hydroxymethyl)-4-(methoxyimino)pyrrolidine-1-carbonyl)pyrazin-2-yl)-2-methylbenzonitrile], the figure is 6.44; as for `CO/N=C1/C[C@@H](CNC(=O)CO)N(C(=O)c2ccc(-c3ccccc3C)cc2)C1` [Example C0008, (S, Z)-2-Hydroxy-N-((4-(methoxyimino)-1-(2′-methyl-[1,1′-biphenyl]-4-carbonyl)pyrrolidin-2-yl)methyl)acetamide], 6.00.
As for `CO/N=C1\CN(C(=O)c2ccc(-c3ccccc3C)cc2)[C@@]2(CCNC2=O)C1` [Example C0039, (S, Z)-3-(Methoxyimino)-1-(2′-methyl-[1,1′-biphenyl]-4-carbonyl)-1,7-diazaspiro[4.4]nonan-6-one], the pIC50 was 6.53. This pIC50 lies 0.53 log units higher than the previous one.
Regarding `CO/N=C1/C[C@@H](CO)N(C(=O)c2ccc(-c3ccc(C#N)cc3C)cc2)C1` (single isomer, unassigned) [Example C0093], the pIC50 was 5.94.
Regarding `CON=C1CC(C(=O)NCC(O)c2ccccc2)N(C(=O)c2ccc(-c3cccc(C#N)c3C)cc2)C1` (single isomer, unassigned) [Example A0229, (25, E)-1-(3′-Cyano-2′-methyl-[1,1′-biphenyl]-4-carbonyl)-N-(2-hydroxy-2-phenethyl)-4-(methoxyimino)pyrrolidine-2-carboxamide], the pIC50 was 6.91.
Turning to `CO/N=C1/C[C@@H](CO)N(C(=O)c2ccc(-c3cccc(C)c3C#N)cc2)C1` [Example A0130, (S, Z)-4′-(2-(Hydroxymethyl)-4-(methoxyimino)pyrrolidine-1-carbonyl)-3-methyl-[1,1′-biphenyl]-2-carbonitrile], the pIC50 is 6.19. This pIC50 lies 0.72 log units lower than the previous one.
On to `CON=C1C[C@@H](CO)N(C(=O)c2ccc3c(c2)COCc2c(C#N)cccc2-3)C1` (single isomer, unassigned) [Example C0142, (Z/E)-9-(2-(Hydroxymethyl)-4-(methoxyimino)pyrrolidine-1-carbonyl)-5,7-dihydrodibenzo[c,e]oxepine-4-carbonitrile], for which the negative-log IC50 (pIC50) was 5.53.
In the case of `CO/N=C1\CN(C(=O)c2ccc(-c3ccccc3C)cc2)C2(COC2)C1` [Example A0041, (Z)-(7-(Methoxyimino)-2-oxa-5-azaspiro[3.4]octan-5-yl)(2′-methyl-[1, 1′-biphenyl]-4-yl)methanone] it was 6.24; in that of `CO/N=C1\C[C@@H](CO)N(C(=O)c2ccc(-c3cccc(C)c3C)cc2C#N)C1` [Example A0153, 5-(2,3-Dimethylphenyl)-2-[(2S, 4E)-2-(hydroxymethyl)-4-(methoxyimino)pyrrolidine-1-carbonyl]benzonitrile], 6.31; in that of `CO/N=C1/C[C@@H](CO)N(C(=O)c2ccc(-c3ccnc(C#N)c3C)cc2)C1` [Example C0091, (S, Z)-4-(4-(2-(Hydroxymethyl)-4-(methoxyimino)pyrrolidine-1-carbonyl)phenyl)-3-methylpicolinonitrile], 6.55.
`CO/N=C1/C[C@@H](CO)N(C(=O)c2ccc(-c3cccc(C#N)c3C)c3c2OCC(=O)N3C)C1` [Example A0163, (S, Z)-3-(8-(2-(Hydroxymethyl)-4-(methoxyimino)pyrrolidine-1-carbonyl)-4-methyl-3-oxo-3,4-dihydro-2H-benzo[b][1,4]oxazin-5-yl)-2-methylbenzonitrile] gave a pIC50 of 6.69.
`COCCNc1nc(C(=O)N2C/C(=N\OC)C[C@H]2CO)ccc1-c1cccc(C#N)c1C` [Example A0197, (S, Z)-3-(6-(2-(Hydroxymethyl)-4-(methoxyimino)pyrrolidine-1-carbonyl)-2-((2-methoxyethyl)amino)pyridin-3-yl)-2-methylbenzonitrile]: the negative logarithm of the IC50 (pIC50) was 6.40.
In the case of `CO/N=C1/C[C@@H](CO)N(C(=O)c2ccc(-c3cccc(C#N)c3C)c(N3CCOCC3)n2)C1` [Example A0198, (S, Z)-3-(6-(2-(Hydroxymethyl)-4-(methoxyimino)pyrrolidine-1-carbonyl)-2-morpholinopyridin-3-yl)-2-methylbenzonitrile] it was 6.01; in that of `CO/N=C1/C[C@@H](CO)N(C(=O)c2ccc(-c3cccc(C)c3C)c(OC3COC3)c2)C1` [Example A0147, (S, Z)-(2′, 3′-Dimethyl-2-(oxetan-3-yloxy)-[1, 1′-biphenyl]-4-yl)(2-(hydroxymethyl)-4-(methoxyimino)pyrrolidin-1-yl)methanone], 7.63; in that of `CO/N=C1\C[C@@H](CNC(=O)OC)N(C(=O)c2ccc(-c3ccccc3C)cc2)C1` [Example C0004, Methyl (S, E)-((4-(methoxyimino)-1-(2′-methyl-[1,1′-biphenyl]-4-carbonyl)pyrrolidin-2-yl)methyl)carbamate], 6.20.
The compound `CO/N=C1\C[C@@H](C(C)(C)O)N(C(=O)c2ccc(-c3cccc(C#N)c3C)cc2)C1` [Example C0163, (S,E)-4′-(2-(2-Hydroxypropan-2-yl)-4-(methoxyimino)pyrrolidine-1-carbonyl)-2-methyl-[1,1′-biphenyl]-3-carbonitrile] had a negative-log IC50 (pIC50) of 7.14.
On to `CO/N=C1/C[C@@H](CO)N(C(=O)c2cc(=O)n(-c3cccc(C)c3C)cn2)C1` [Example C0077, (S, Z)-3-(2,3-Dimethylphenyl)-6-(2-(hydroxymethyl)-4-(methoxyimino)pyrrolidine-1-carbonyl)pyrimidin-4(3H)-one], for which the negative logarithm of the IC50 (pIC50) was 6.17.
`CO/N=C1\CC[C@@H](CO)N(C(=O)c2ccc(-c3cccc(C#N)c3C)cc2)C1` [Example A0234, (S, E)-4′-(2-(Hydroxymethyl)-5-(methoxyimino)piperidine-1-carbonyl)-2-methyl-[1,1′-biphenyl]-3-carbonitrile] had a pIC50 of 6.62.
